Here are results for ten compounds from PubChem BioAssay (NCI).

Among the test systems are ACHN renal; HS 578T breast; UACC-257 melanoma; UACC-62 melanoma; 786-0 renal; HOP-62 NSCLC; SK-OV-3 ovarian.
What all share (assay): NCI tumour cell line growth inhibition, 48 h

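Following 48 hours of exposure in 96-well plates, responses at five concentrations were used to interpolate endpoints linearly. Abbreviation: GI50, concentration required for 50% inhibition of growth. TGI is the concentration that stops growth completely.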

Regarding `CC1(C)CCC[C@]2(C)c3cc(O)ccc3CC[C@@H]12`, the GI50 in the experiment on ACHN renal is 18.1 µM; with HS 578T breast, 15.6 µM; in the experiment with UACC-257 melanoma, 19.6 µM; in the experiment on UACC-62 melanoma it was 13.1 µM; in the experiment on 786-0 renal it was 27.3 µM. The TGI in the experiment with ACHN renal was 33.5 µM; with HS 578T breast, 31.3 µM; in the experiment with UACC-257 melanoma, 36 µM; in the experiment on UACC-62 melanoma, 25.8 µM; in the experiment on 786-0 renal, 79.7 µM.

Regarding `COc1ccc2c(c1)CCc1[nH]nc(-c3cc(OC)c(OC)c(OC)c3)c1-2`, the GI50 with ACHN renal, in the experiment on HS 578T breast, with HOP-62 NSCLC, with UACC-62 melanoma, with SK-OV-3 ovarian and with 786-0 renal was less than 0.01 µM in each case. The TGI is 21.7 µM in the experiment with ACHN renal; 22.3 µM with HS 578T breast; 10.8 µM with HOP-62 NSCLC; 13 µM in the experiment on UACC-62 melanoma; less than 0.01 µM in the experiment on SK-OV-3 ovarian; 11.5 µM in the experiment with 786-0 renal.

On to `CCCCOC(=O)c1ccc(NC(=O)CCl)cc1`, for which the GI50 is 9.16 µM with HS 578T breast; 1.99 µM in the experiment with HOP-62 NSCLC; 3.05 µM in the experiment with UACC-257 melanoma; 2.74 µM in the experiment with UACC-62 melanoma; 10.5 µM in the experiment on SK-OV-3 ovarian; 2.04 µM in the experiment on 786-0 renal. For the same compound, the TGI in the experiment with HS 578T breast is 57.3 µM; with HOP-62 NSCLC, 3.96 µM; in the experiment on UACC-257 melanoma, 8.66 µM; in the experiment with UACC-62 melanoma it was 13.3 µM; in the experiment on SK-OV-3 ovarian, 22.6 µM; with 786-0 renal it was 3.74 µM.

In the case of `CCCOC(=O)N[C@H]1CCc2cc(OC)c(OC)c(OC)c2-c2ccc(SC)c(=O)cc21`, the GI50 is less than 0.01 µM in the experiment with ACHN renal; less than 0.01 µM in the experiment with HS 578T breast; less than 0.01 µM in the experiment with HOP-62 NSCLC; 12.1 µM in the experiment with UACC-257 melanoma; less than 0.01 µM with UACC-62 melanoma; less than 0.01 µM with 786-0 renal. Also, the TGI with ACHN renal was 15.7 µM; in the experiment on HS 578T breast it was more than 100 µM; with HOP-62 NSCLC it was more than 100 µM; with UACC-257 melanoma it was more than 56.3 µM; with UACC-62 melanoma it was more than 61.2 µM; in the experiment on 786-0 renal, more than 100 µM.

Consider `O=C(NCCN1CCC(O)CC1)c1cc2c(o1)C(=O)c1ccccc1C2=O`, for which the GI50 is 0.322 µM in the experiment with HS 578T breast; 0.23 µM with HOP-62 NSCLC; 0.176 µM in the experiment with UACC-257 melanoma; 0.164 µM with UACC-62 melanoma; 1.51 µM with SK-OV-3 ovarian; 1.44 µM in the experiment with 786-0 renal. Moreover, the TGI in the experiment with HS 578T breast worked out at 0.919 µM; in the experiment on HOP-62 NSCLC, 0.51 µM; in the experiment with UACC-257 melanoma, 0.391 µM; in the experiment with UACC-62 melanoma it was 0.308 µM; with SK-OV-3 ovarian it was 2.92 µM; in the experiment on 786-0 renal, 2.96 µM.

Turning to `COc1c2c(c(CC=C(C)C)c3oc(=O)c(-c4ccc(O)cc4)c(O)c13)OC(C)(C)C=C2`, the TGI was 92.7 µM in the experiment with ACHN renal; more than 100 µM in the experiment on HS 578T breast; 86.2 µM in the experiment on HOP-62 NSCLC; more than 100 µM with UACC-257 melanoma; 46.6 µM in the experiment on UACC-62 melanoma; 71.3 µM in the experiment on 786-0 renal.

Take `CN1CCN(C(=O)c2c(NC(=O)NS(=O)(=O)c3ccccc3)sc3c2CCCCC3)CC1`: the GI50 was 30.7 µM in the experiment with ACHN renal; 40.3 µM in the experiment with HS 578T breast; 35.6 µM in the experiment with UACC-257 melanoma; 23 µM in the experiment on UACC-62 melanoma; 19.2 µM in the experiment on 786-0 renal. The TGI in the experiment on ACHN renal was more than 100 µM; with HS 578T breast, more than 100 µM; in the experiment on UACC-257 melanoma, more than 100 µM; with UACC-62 melanoma it was 60 µM; in the experiment on 786-0 renal, 53 µM.

Regarding `COc1ccc(C2=Nc3c/c(=C\c4c(O)[nH]c5ccc(Cl)cc45)ccc3=N2)cc1`, the GI50 is 1.83 µM in the experiment with ACHN renal; 1.73 µM with HS 578T breast; 1.82 µM with HOP-62 NSCLC; 2.23 µM in the experiment with SK-OV-3 ovarian; 1.94 µM in the experiment on 786-0 renal. The TGI with ACHN renal turned out to be 3.47 µM; with HS 578T breast it was 4.8 µM; in the experiment on HOP-62 NSCLC it was 4.02 µM; in the experiment with SK-OV-3 ovarian it was 5.23 µM; in the experiment with 786-0 renal, 3.81 µM.

As to `C[C@]1(C(=O)O)N[C@H](C(=O)O)CS1`, the GI50 with ACHN renal, in the experiment with HOP-62 NSCLC, with UACC-257 melanoma, with UACC-62 melanoma, in the experiment on SK-OV-3 ovarian and with 786-0 renal was more than 1000 µM throughout. Besides, the TGI with ACHN renal, in the experiment with HOP-62 NSCLC, in the experiment on UACC-257 melanoma, with UACC-62 melanoma, in the experiment with SK-OV-3 ovarian and with 786-0 renal was more than 1000 µM each time.

`COc1cc(-c2csc(NC(=O)Nc3cc(C(F)(F)F)cc(C(F)(F)F)c3)n2)cc(OC)c1OC`: the GI50 in the experiment with ACHN renal was 2.78 µM; with HS 578T breast, 2.24 µM; in the experiment on HOP-62 NSCLC, 2.11 µM; in the experiment with UACC-62 melanoma it was 1.59 µM; with SK-OV-3 ovarian, 2.59 µM; in the experiment on 786-0 renal, 3.17 µM. For the same compound, the TGI in the experiment on ACHN renal stood at 10.6 µM; with HS 578T breast, 6.9 µM; in the experiment with HOP-62 NSCLC, 6.36 µM; in the experiment on UACC-62 melanoma it was 4.53 µM; in the experiment with SK-OV-3 ovarian it was 8.57 µM; with 786-0 renal it was 11.8 µM.
